The source of these data is US10030047B2 (Hoffmann-La Roche Inc., priority 2015, dated 2018).

Values after ≈ are worked out from the molar mass of the structure shown.

The subject of this assay is A. baumannii strain ATCC19606. The assay is described as follows: Minimum inhibitory concentration (MIC) determination, microbroth dilution (CLSI). It counts as cell-based. The conditions noted are these: Acinetobacter baumannii; A. baumannii ATCC19606; CAMHB; read after 20 hours; >=80% growth inhibition; read-out: ATCC19606 MIC. Summed up: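 CLSI broth microdilution in cation-adjusted Mueller Hinton broth with twofold compound dilutions and ~5×10^5 CFU/ml inoculum, incubated at 35±2 °C. MIC read after 20 h as lowest concentration inhibiting ≥80% of growth, by eye and OD 600 nm.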
For orientation: Dilution methods test growth across graded concentrations, often in twofold steps.
On to `CN1C(=O)[C@H](CCCCN)NC(=O)[C@H](CCCN)NCc2cccnc2Sc2c(Cl)cc(N3CC4CC3CO4)cc2CNC(=O)[C@@H]1Cc1c[nH]c2ccccc12` (stereo partly drawn) [Example 187, (11S,14S,17S)-14-(4-Amino-butyl)-11-(3-amino-propyl)-25-chloro-17-(1H-indol-3-ylmethyl)-16-methyl-23-(2-oxa-5-aza-bicyclo[2.2.1]hept-5-yl)-2-thia-4,10,13,16,19-pentaaza-tricyclo[19.4.0.0*3,8*]pentacosa-1(25),3(8),4,6,21,23-hexaene-12,15,18-trione], for which the MIC worked out at 2 µg/mL (≈ 2.49 µM). With `CN1C(=O)[C@H](CCCCN)NC(=O)[C@H](CCCN)NCc2ncccc2Sc2c(Cl)cc(C(F)(F)F)cc2CNC(=O)[C@@H]1Cc1c[nH]c2ccccc12` [Example 112, (11S,14S,17S)-14-(4-Amino-butyl)-11-(3-amino-propyl)-25-chloro-17-(1H-indol-3-ylmethyl)-16-methyl-23-trifluoromethyl-2-thia-7,10,13,16,19-pentaaza-tricyclo[19.4.0.0*3,8*]pentacosa-1(25),3,5,7,21,23-hexaene-12,15,18-trione], the MIC was 0.5 µg/mL (≈ 0.647 µM). For `CN1C(=O)[C@H](CCCCN)NC(=O)[C@H](CCCN)NCc2cccnc2Sc2c(Cl)cc(-c3cc(F)nc(F)c3)cc2CNC(=O)[C@@H]1Cc1c[nH]c2ccccc12` [Example 209, (11S,14S,17S)-14-(4-Amino-butyl)-11-(3-amino-propyl)-25-chloro-23-(2,6-difluoro-pyridin-4-yl)-17-(1H-indol-3-ylmethyl)-16-methyl-2-thia-4,10,13,16,19-pentaaza-tricyclo[19.4.0.0*3,8*]pentacosa-1(21),3(8),4,6,22,24-hexaene-12,15,18-trione] the value was 0.25 µg/mL (≈ 0.305 µM); for `CN1C(=O)[C@H](CCCCN)NC(=O)[C@H](CCCN)NCc2cccnc2Sc2c(Cl)cc(-c3ccnc(N)c3)cc2CNC(=O)[C@@H]1Cc1c[nH]c2ccccc12` [Example 223, (11S,14S,17S)-14-(4-Amino-butyl)-11-(3-amino-propyl)-23-(2-amino-pyridin-4-yl)-25-chloro-17-(1H-indol-3-ylmethyl)-16-methyl-2-thia-4,10,13,16,19-pentaaza-tricyclo[19.4.0.0*3,8*]pentacosa-1(21),3,5,7,22,24-hexaene-12,15,18-trione], 1 µg/mL (≈ 1.25 µM); for `COc1cc(Cl)c2c(c1)CNC(=O)[C@H](Cc1c[nH]c3ccccc13)N(C)C(=O)[C@H](CCCCN)NC(=O)[C@H](CCCN)NCc1ccccc1S2` [Example 49, (12S,15S,18S)-15-(4-Amino-butyl)-18-(3-amino-propyl)-4-chloro-12-(1H-indol-3-ylmethyl)-6-methoxy-13-methyl-2-thia-10,13,16,19-tetraaza-tricyclo[19.4.0.0*3,8*]pentacosa-1(25),3,5,7,21,23-hexaene-11,14,17-trione], 0.5 µg/mL (≈ 0.681 µM). For `CN1C(=O)[C@H](CCCCN)NC(=O)[C@H](CCCN)NCc2cccnc2Sc2c(cc(C(F)(F)F)cc2C(F)(F)F)CNC(=O)[C@@H]1Cc1c[nH]c2ccccc12` [Example 91, (11S,14S,17S)-14-(4-Amino-butyl)-11-(3-amino-propyl)-17-(1H-indol-3-ylmethyl)-16-methyl-23,25-bis-trifluoromethyl-2-thia-4,10,13,16,19-pentaaza-tricyclo[19.4.0.0*3,8*]pentacosa-1(25),3,5,7,21,23-hexaene-12,15,18-trione], the MIC came to 0.5 µg/mL (≈ 0.62 µM). For `CN1C(=O)[C@H](CCCCN)NC(=O)[C@H](CCCN)NCc2cccnc2Sc2c(Cl)cccc2CNC(=O)[C@@H]1Cc1c[nH]c2ccccc12` [Example 28, (11S,14S,17S)-14-(4-Amino-butyl)-11-(3-amino-propyl)-25-chloro-17-(1H-indol-3-ylmethyl)-16-methyl-2-thia-4,10,13,16,19-pentaaza-tricyclo[19.4.0.0*3,8*]pentacosa-1(25),3,5,7,21,23-hexaene-12,15,18-trione] the value was 2 µg/mL (≈ 2.84 µM); for `CN1C(=O)[C@H](CCCCN)NC(=O)[C@H](CCCN)NCc2cccnc2Sc2c(Cl)cc(-c3ccncn3)cc2CNC(=O)[C@@H]1Cc1c[nH]c2ccccc12` [Example 213, (11S,14S,17S)-14-(4-Amino-butyl)-11-(3-amino-propyl)-25-chloro-17-(1H-indol-3-ylmethyl)-16-methyl-23-pyrimidin-4-yl-2-thia-4,10,13,16,19-pentaaza-tricyclo[19.4.0.0*3,8*]pentacosa-1(21),3,5,7,22,24-hexaene-12,15,18-trione], 2 µg/mL (≈ 2.55 µM). Take `CN1C(=O)[C@H](CCCCN)NC(=O)[C@H](CCCN)NCc2cccnc2Sc2c(C(F)(F)F)ccc(Cl)c2CNC(=O)[C@@H]1Cc1c[nH]c2ccccc12` [Example 68, (11S,14S,17S)-14-(4-Amino-butyl)-11-(3-amino-propyl)-22-chloro-17-(1H-indol-3-ylmethyl)-16-methyl-25-trifluoromethyl-2-thia-4,10,13,16,19-pentaaza-tricyclo[19.4.0.0*3,8*]pentacosa-1(25),3,5,7,21,23-hexaene-12,15,18-trione]: the MIC stood at 0.5 µg/mL (≈ 0.647 µM).

Take `CN1C(=O)[C@H](CCCCN)NC(=O)[C@H](CCCN)NCc2cccnc2Sc2c(Cl)ccc(N3CCOCC3)c2CNC(=O)[C@@H]1Cc1c[nH]c2ccccc12` [Example 147, (11S,14S,17S)-14-(4-Amino-butyl)-11-(3-amino-propyl)-25-chloro-17-(1H-indol-3-ylmethyl)-16-methyl-22-morpholin-4-yl-2-thia-4,10,13,16,19-pentaaza-tricyclo[19.4.0.0*3,8*]pentacosa-1(25),3(8),4,6,21,23-hexaene-12,15,18-trione]: the MIC came out at 0.12 µg/mL (≈ 0.152 µM). In the case of `NCCCC[C@@H]1NC(=O)[C@H](CCCN)NCc2cccnc2Sc2c(Cl)cc(Cl)cc2CNC(=O)[C@H](Cc2c[nH]c3ccccc23)NC1=O` [Example 81, (11S,14S,17S)-14-(4-Amino-butyl)-11-(3-amino-propyl)-23,25-dichloro-17-(1H-indol-3-ylmethyl)-2-thia-4,10,13,16,19-pentaaza-tricyclo[19.4.0.0*3,8*1]pentacosa-1(25),3(8),4,6,21,23-hexaene-12,15,18-trione], the MIC is 1 µg/mL (≈ 1.38 µM). Take `CN1C(=O)[C@H](CCCCN)NC(=O)[C@H](CCCN)NCc2ccccc2Sc2c(Cl)ccc(Cl)c2CNC(=O)[C@@H]1Cc1c[nH]c2ccccc12` [Example 23, (12S,15S,18S)-15-(4-Amino-butyl)-18-(3-amino-propyl)-4,7-dichloro-12-(1H-indol-3-ylmethyl)-13-methyl-2-thia-10,13,16,19-tetraaza-tricyclo[19.4.0.0*3,8*]pentacosa-1(25),3,5,7,21,23-hexaene-11,14,17-trione]: the MIC worked out at 0.5 µg/mL (≈ 0.677 µM).

For the compound `CN1C(=O)[C@H](CCCCN)NC(=O)[C@H](CCCN)NCc2cccnc2Sc2c(Cl)ccc(-c3ccc(O)nc3)c2CNC(=O)[C@@H]1Cc1c[nH]c2ccccc12` [Example 230, (11S,14S,17S)-14-(4-Amino-butyl)-11-(3-amino-propyl)-25-chloro-22-(6-hydroxy-pyridin-3-yl)-17-(1H-indol-3-ylmethyl)-16-methyl-2-thia-4,10,13,16,19-pentaaza-tricyclo[19.4.0.0*3,8*]pentacosa-1(21),3,5,7,22,24-hexaene-12,15,18-trione], the MIC was determined as 0.12 µg/mL (≈ 0.15 µM).

On to `Cc1[nH]c2ccccc2c1C[C@H]1C(=O)NCc2cc(-c3ccc(S(C)(=O)=O)cc3)cc(Cl)c2Sc2ncccc2CN[C@@H](CCCN)C(=O)N[C@@H](CCCCN)C(=O)N1C` [Example 234, (11S,14S,17S)-14-(4-Amino-butyl)-11-(3-amino-propyl)-25-chloro-23-(4-methanesulfonyl-phenyl)-16-methyl-17-(2-methyl-1H-indol-3-ylmethyl)-2-thia-4,10,13,16,19-pentaaza-tricyclo[19.4.0.0*3,8*]pentacosa-1(25),3(8),4,6,21,23-hexaene-12,15,18-trione], for which the MIC worked out at 2 µg/mL (≈ 2.29 µM). For `Cc1[nH]c2ccccc2c1C[C@H]1C(=O)NCc2cc(Cl)ccc2Sc2ccccc2CN[C@@H](CCCN)C(=O)N[C@@H](CCCCN)C(=O)N1C` [Example 57, (12S,15S,18S)-15-(4-Amino-butyl)-18-(3-amino-propyl)-6-chloro-13-methyl-12-(2-methyl-1H-indol-3-ylmethyl)-2-thia-10,13,16,19-tetraaza-tricyclo[19.4.0.0*3,8*]pentacosa-1(21),3,5,7,22,24-hexaene-11,14,17-trione], the MIC was determined as 0.5 µg/mL (≈ 0.696 µM). For the compound `CN1C(=O)[C@H](CCCCN)NC(=O)[C@H](CCCN)NCc2cccnc2Sc2cnc(N3CCOCC3)cc2CNC(=O)[C@@H]1Cc1c[nH]c2ccccc12` [Example 204, (7S,10S,13S)-13-((1H-Indol-3-yl)methyl)-10-(4-aminobutyl)-7-(3-aminopropyl)-12-methyl-18-morpholino-6,7,9,10,12,13,15,16-octahydrodipyrido[2,3-b:4′,3′-p][1,5,8,11,14]thiatetraazacycloheptadecine-8,11,14(5H)-trione], the MIC was 64 µg/mL (≈ 84.5 µM). Take `CN1C(=O)[C@H](CCCCN)NC(=O)[C@H](CCCNC(=O)OCc2ccccc2)NCc2cccnc2Sc2c(Cl)ccc(Cl)c2CNC(=O)[C@@H]1Cc1c[nH]c2ccccc12` [Example 139, {3-[(11S,14S,17S)-14-(4-Amino-butyl)-22,25-dichloro-17-(1H-indol-3-ylmethyl)-16-methyl-12,15,18-trioxo-2-thia-4,10,13,16,19-pentaaza-tricyclo[19.4.0.0*3,8*]pentacosa-1(25),3(8),4,6,21,23-hexaen-11-yl]-propyarbamic acid benzyl ester]: the MIC was 2 µg/mL (≈ 2.29 µM). As to `CN1C(=O)[C@H](CCCCN)NC(=O)[C@H](CCCN)NCc2cccnc2Sc2c(Cl)cc(-n3ccnc3)cc2CNC(=O)[C@@H]1Cc1c[nH]c2ccccc12` [Example 227, (11S,14S,17S)-14-(4-Amino-butyl)-11-(3-amino-propyl)-25-chloro-23-imidazol-1-yl-17-(1H-indol-3-ylmethyl)-16-methyl-2-thia-4,10,13,16,19-pentaaza-tricyclo[19.4.0.0*3,8*]pentacosa-1(21),3,5,7,22,24-hexaene-12,15,18-trione], the MIC came out at 4 µg/mL (≈ 5.19 µM).

The term MIC denotes the lowest concentration found to suppress growth.
